Measurements as given in patent publication US8791132B2, “Compounds and methods for treatment of hypertension” (Medivation Technologies, Inc., priority 2011, dated 2014).
Where two headings read alike, the source gives them in different places. Blank lines part the entries; values can stand above or below the compound they belong to.

Key:
[1] = target: T1, rat adrenergic α1B receptor (Rattus norvegicus, UniProt P15823); test: Radioligand binding, adrenergic α1B ([3H]Prazosin); details: for Percentage inhibition of ligand binding, Adrenergic α1B (0.1 μM) / Percentage inhibition of ligand binding, Adrenergic α1B: 0.1 µM
T1 construct: rat adrenergic α1B receptor obtained from Wistar Rat liver; from tissue; host or cells: Wistar rat liver
T1 sequence (P15823 1-515): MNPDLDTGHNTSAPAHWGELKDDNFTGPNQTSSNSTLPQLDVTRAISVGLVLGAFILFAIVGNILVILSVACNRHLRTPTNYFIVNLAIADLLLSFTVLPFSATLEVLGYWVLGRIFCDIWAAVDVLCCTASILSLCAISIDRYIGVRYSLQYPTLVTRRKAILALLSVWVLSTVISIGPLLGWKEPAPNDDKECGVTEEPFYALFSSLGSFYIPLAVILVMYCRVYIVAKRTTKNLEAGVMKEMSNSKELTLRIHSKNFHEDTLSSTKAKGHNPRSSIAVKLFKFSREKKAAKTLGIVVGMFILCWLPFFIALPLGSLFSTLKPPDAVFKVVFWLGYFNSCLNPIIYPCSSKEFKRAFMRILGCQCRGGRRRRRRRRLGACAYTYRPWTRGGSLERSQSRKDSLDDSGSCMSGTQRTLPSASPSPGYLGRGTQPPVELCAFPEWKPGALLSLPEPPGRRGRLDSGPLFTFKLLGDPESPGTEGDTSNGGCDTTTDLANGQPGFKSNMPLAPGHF
Method: To evaluate in radioligand binding assays the activity of compounds of the invention, rat adrenergic α1B receptor obtained from Wistar Rat liver (Garcia-S'ainz, J. et al, Biochem. Biophys. Res. Commun. 186:760, 1992; Michel, A. et al, Br. J. Pharmacol. 98:883, 1989) in a modified Tris-HCl buffer (50 mM Tris-HCl buffer, pH 7.4, 0.5 mM EDTA) was used. Compounds of the invention were incubated with 0.25 nM [^3H]Prazosin for 60 min at 25° C. Non-specific binding was estimated in the presence of 10 μM phentolamine. Receptor proteins were filtered and washed, the filters were then counted to determine [^3H]Prazosin specifically bound. […] Compounds of the invention were tested in this biochemical assay and percent inhibition of specific binding was determined. Biochemical assay results are presented as the percent inhibition of specific binding in Table B1.

[2] = target: T2, human recombinant adrenergic α2B receptor (Homo sapiens, UniProt P18089); test: Radioligand binding, adrenergic α2B ([3H]Rauwolscine); details: for Percentage inhibition of ligand binding, Adrenergic α2B / Percentage inhibition of ligand binding, Adrenergic α2B (0.03 μM): 0.03 µM
T2 construct: expressed in transfected cells; host or cells: CHO-K1
T2 sequence (P18089 1-450): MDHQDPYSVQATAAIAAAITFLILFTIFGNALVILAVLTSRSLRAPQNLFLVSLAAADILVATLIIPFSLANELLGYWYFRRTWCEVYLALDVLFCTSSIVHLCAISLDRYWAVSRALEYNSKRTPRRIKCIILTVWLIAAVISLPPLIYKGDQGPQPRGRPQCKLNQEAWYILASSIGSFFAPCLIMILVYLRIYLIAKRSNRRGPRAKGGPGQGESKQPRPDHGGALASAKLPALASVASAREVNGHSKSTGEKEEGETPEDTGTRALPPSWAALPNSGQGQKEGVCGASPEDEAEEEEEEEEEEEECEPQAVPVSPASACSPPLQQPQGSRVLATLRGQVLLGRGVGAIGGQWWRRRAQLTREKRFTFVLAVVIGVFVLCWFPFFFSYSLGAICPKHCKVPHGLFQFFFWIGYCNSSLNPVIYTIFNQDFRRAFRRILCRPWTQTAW
Method: To evaluate in radioligand binding assays the activity of compounds of the invention, human recombinant adrenergic α2B receptor expressed in Chinese hamster ovary (CHO) K1 cells (Uhlen, S. et al, Eur. J. Pharmacol. 343(1):93, 1998) in a modified Tris-HCl buffer (50 mM Tris-HCl, pH 7.4, 12.5 mM MgCl2, 1 mM EDTA, 0.2% BSA) was used. Compounds of the invention were incubated with 2.5 nM [3H]Rauwolscine for 60 min at 25° C. Non-specific binding was estimated in the presence of 10 μM Prazosin. Receptor proteins were filtered and washed, the filters were then counted to determine [3H]Rauwolscine specifically bound. […] Compounds of the invention were tested in this biochemical assay and percent inhibition of specific binding was determined. Biochemical assay results are presented as the percent inhibition of specific binding in Table B1.

[3] = target: T3, human recombinant adrenergic α2A receptor (Homo sapiens, UniProt P08913); test: Radioligand binding, adrenergic α2A ([3H]MK-912); details: for Percentage inhibition of ligand binding, Adrenergic α2A: 0.1 µM
T3 construct: expressed in transfected cells; host or cells: insect Sf9 cells
T3 sequence (P08913 1-465): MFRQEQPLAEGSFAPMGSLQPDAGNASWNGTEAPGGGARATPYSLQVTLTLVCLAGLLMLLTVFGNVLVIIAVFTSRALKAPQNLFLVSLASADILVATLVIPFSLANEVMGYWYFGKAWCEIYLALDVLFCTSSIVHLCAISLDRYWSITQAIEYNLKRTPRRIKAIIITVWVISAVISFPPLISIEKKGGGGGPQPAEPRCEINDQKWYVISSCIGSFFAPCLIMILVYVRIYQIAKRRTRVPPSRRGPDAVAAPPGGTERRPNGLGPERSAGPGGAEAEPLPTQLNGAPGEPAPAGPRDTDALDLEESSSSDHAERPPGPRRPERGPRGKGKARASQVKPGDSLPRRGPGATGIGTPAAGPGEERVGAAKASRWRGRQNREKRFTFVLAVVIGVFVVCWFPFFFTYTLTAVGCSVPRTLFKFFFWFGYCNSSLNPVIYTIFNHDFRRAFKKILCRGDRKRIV
Method: To evaluate in radioligand binding assays the activity of compounds of the invention, human recombinant adrenergic α2A receptor expressed in insect Sf9 cells (Uhlen, S. et al, J. Pharmacol. Exp. Ther. 271:1558, 1994) in a modified Tris-HCl buffer (50 mM Tris-HCl, pH 7.4, 12.5 mM MgCl2, 2 mM EDTA) was used. Compounds of invention were incubated with 1 nM [^3H]MK-912 for 60 min at 25° C. MK912 is (2S-trans)-1,3,4,5′,6,6′,7,12b-octahydro-1′,3′-dimethyl-spiro[2H-benzofuro[2,3-a]quinolizine-2,4′(1′H)-pyrimidin]-2′(3′H)-one hydrochloride. Non-specific binding was estimated in the presence of 10 μM WB-4101 (2-(2,6-Dimethoxyphenoxyethyl)aminomethyl-1,4-benzodioxane hydrochloride). Receptor proteins were filtered and washed, the filters were then counted to determine [^3H]MK-912 specifically bound. […] Compounds of the invention were tested in this biochemical assay and percent inhibition of specific binding was determined. Biochemical assay results are presented as the percent inhibition of specific binding in Table B1.

[4] = compound at 0.1 μM, [3H]Prazosin, repeat datapoints each shown
[5] = compound at 0.03 μM, [3H]Rauwolscine, repeat assays, each datapoint shown
[6] = compound at 0.1 μM, [3H]Prazosin, repeat assays, each datapoint shown
[7] = compound at 0.03 μM, [3H]Rauwolscine, repeat datapoints each shown
[8] = read-out: Percentage inhibition of ligand binding, Adrenergic α1B (0.1 μM), compound at 0.1 μM, [3H]Prazosin, repeat datapoints each shown
[9] = read-out: Percentage inhibition of ligand binding, Adrenergic α2B (0.03 μM), compound at 0.03 μM, [3H]Rauwolscine, repeat datapoints each shown
[10] = read-out: Percentage inhibition of ligand binding, Adrenergic α2A (0.1 μM), compound at 0.1 μM, [3H]MK-912, repeat datapoints each shown
[11] = compound at 0.1 μM, [3H]Prazosin, repeat assays, each datapoint shown, read-out: Percentage inhibition of ligand binding, Adrenergic α1B
[12] = read-out: Percentage inhibition of ligand binding, Adrenergic α2B (0.1 μM), compound at 0.1 μM, [3H]Rauwolscine, repeat datapoints each shown

Percentage inhibition of ligand binding, Adrenergic α1B (0.1 μM) [1, 4]: 20%
SMILES: Cc1ccc2c(c1)c1c(n2CC(N=[N+]=[N-])c2ccncc2)CCN(C)C1 (racemic) [V-1a, 5-(2-azido-2-(pyridin-4-yl)ethyl)-2,3,4,5-tetrahydro-2,8-dimethyl-1H-pyrido[4,3-b]indole]

Percentage inhibition of ligand binding, Adrenergic α2B [2, 5]: 54% | Percentage inhibition of ligand binding, Adrenergic α1B [1, 6]: 4%
SMILES: Cc1ccc2c(c1)c1c(n2CC(OC(=O)C(N)C(C)C)c2ccncc2)CCN(C)C1 (single isomer, unassigned) [25a]

Percentage inhibition of ligand binding, Adrenergic α2B [2, 5]: 75% | Percentage inhibition of ligand binding, Adrenergic α1B [1, 6]: 12%
SMILES: Cc1ccc2c(c1)c1c(n2CC(OC(=O)C(N)C(C)C)c2ccncc2)CCN(C)C1 (single isomer, unassigned) [25b]

Percentage inhibition of ligand binding, Adrenergic α1B [1, 6]: 9% | Percentage inhibition of ligand binding, Adrenergic α2A ([3]; compound at 0.1 μM, [3H]MK-912, repeat assays, each datapoint shown): 5%
SMILES: Cc1ccc2c(c1)c1c(n2CC(O)c2ccc(C(=O)N(C)C)cc2)CCN(C)C1 (single isomer, unassigned) [52a]

Percentage inhibition of ligand binding, Adrenergic α2B (0.03 μM) [2, 7]: 104% | Percentage inhibition of ligand binding, Adrenergic α1B (0.1 μM) [1, 4]: 94%
SMILES: Cc1ccc(CCn2c3c(c4cc(Cl)cnc42)C2CCCN2CC3)cn1 (single isomer, unassigned) [137a]

Percentage inhibition of ligand binding, Adrenergic α2B (0.03 μM) [2, 7]: 71% | inhibition at 0.1 µM [1, 8]: 68%
SMILES: Cc1ccc2c(c1)c1c(n2CC(O)c2ccc(C#N)cc2)CCN(C)C1 (single isomer, unassigned) [142a]

Percentage inhibition of ligand binding, Adrenergic α1B (0.1 μM) [1, 4]: 43%
SMILES: CN1CCc2c(c3cc(Cl)ccc3n2CC(C)(O)c2ccc(C(F)(F)F)nc2)C1 (single isomer, unassigned) [143a]

Percentage inhibition of ligand binding, Adrenergic α1B (0.1 μM) [1, 4]: 7%
SMILES: Cc1ccc2c(c1)c1c(n2CC(c2ccncc2)N2CCCC2)CCN(C)C1 (single isomer, unassigned) [152b]

inhibition at 0.03 µM [2, 9]: 37% | Percentage inhibition of ligand binding, Adrenergic α1B (0.1 μM) [1, 4]: −2%
SMILES: Cc1cnc2c(c1)c1c(n2CC(N)c2ccc(C#N)cc2)CCN(C)C1 (single isomer, unassigned) [159a]

Percentage inhibition of ligand binding, Adrenergic α2B ([2]; 0.03 μM compound): 8% | Percentage inhibition of ligand binding, Adrenergic α2A ([3]; 0.1 μM compound): 0%
SMILES: OCCN1CCc2c(c3cc(Cl)ccc3n2CC(O)c2cccnc2)C1 (single isomer, unassigned) [II-94a]

Percentage inhibition of ligand binding, Adrenergic α2B ([2]; 0.03 μM compound): 12% | inhibition at 0.1 µM ([3]; 0.1 μM compound, read-out: Percentage inhibition of ligand binding, Adrenergic α2A): 7%
SMILES: Cc1cnc2c(c1)c1c(n2CC(O)c2ccc(C)nc2)CCN(C)C1 (single isomer, unassigned) [II-100a]

inhibition at 0.1 µM [1, 8]: 25%
SMILES: Cc1ccc2c(c1)c1c(n2CC(O)c2cn[nH]c2)CCN(C)C1 (single isomer, unassigned) [II-106a]

Percentage inhibition of ligand binding, Adrenergic α1B [1, 6]: 57%
SMILES: Cc1ccc2c(c1)c1c(n2CC(O)c2ccc(F)cc2)CCN(C)C1 (stereo not shown) [30a]

Percentage inhibition of ligand binding, Adrenergic α1B (0.1 μM) [1, 4]: 69%
SMILES: Cc1ccc2c(c1)c1c(n2CC(O)c2ccncc2)CCN2CCCC12 (stereo not shown) [129b]

inhibition at 0.03 µM [2, 9]: -2% | inhibition at 0.1 µM [1, 8]: 37%
SMILES: Cc1ccc2c(c1)c1c(n2CC(C)(O)c2ccc(C)nc2)CN(C)CC1 (stereo not shown) [196b]

inhibition at 0.1 µM ([2]; 0.1 μM compound, read-out: Percentage inhibition of ligand binding, Adrenergic α2B): 27% | Ki ([2]; read-out: Ki α2B): 152 nM | inhibition at 0.1 µM ([1]; 0.1 μM compound, read-out: Percentage inhibition of ligand binding, Adrenergic α1B): 5%
SMILES: Cc1ccc2c(c1)c1c(n2CC(C)(O)c2cccnc2)CC[N+](C)([O-])C1 (stereo not shown) [II-105, 1-(2,8-dimethyl-2-oxy-1,2,3,4-tetrahydro-pyrido[4,3-b]indol-5-yl)-2-pyridin-3-yl-propan-2-ol]

The next lines start with the compound.

SMILES: CC(O)(Cn1c2c(c3cc(Cl)ccc31)CN(C1CCC1)CC2)c1cccnc1 (single isomer, unassigned) [II-118a]
Percentage inhibition of ligand binding, Adrenergic α2B (0.03 μM) [2, 7]: 27% | inhibition at 0.1 µM [3, 10]: 3%

SMILES: CN1CCc2c(c3cc(Cl)ccc3n2CC(O)c2cccnc2)C1 (stereo not shown) [compound 7]
inhibition at 0.03 µM ([2]; compound at 0.03 μM, [3H]Rauwolscine, repeat assays, each datapoint shown, read-out: Percentage inhibition of ligand binding, Adrenergic α2B): 59% | inhibition at 0.1 µM [1, 11]: 35%

SMILES: Cc1ccc2c(c1)c1c(n2CC(O)c2ccncc2)C(C)N2CCC1C2 (stereo not shown) [compound 38]
inhibition at 0.1 µM [1, 11]: 20%

SMILES: CN1CCc2c(n(CC(O)c3ccncc3)c3ccc(Cl)cc23)C1 (stereo not shown) [compound 41]
inhibition at 0.1 µM [1, 11]: 57%

SMILES: Cc1ccc2c(c1)c1c(n2CCc2ccccc2F)CCN(C)C1 [compound 204]
inhibition at 0.1 µM [2, 12]: 107% | Ki [3]: 2.48 nM | inhibition at 0.1 µM [3, 10]: 87%

SMILES: Cc1ccc2c(c1)c1c(n2CCC2CCCCC2)CCN(C)C1 [compound 205]
inhibition at 0.1 µM [2, 12]: 70% | inhibition at 0.1 µM [3, 10]: 69%

SMILES: CN1CCc2c(c3cc(C(F)(F)F)ccc3n2CCc2ccccc2)C1 [compound 209]
inhibition at 0.1 µM [2, 12]: 84% | inhibition at 0.1 µM [3, 10]: 80%

SMILES: Cc1ccc(CCn2c3c(c4cc(C(F)(F)F)ccc42)CN(C)CC3)cc1 [compound 210]
inhibition at 0.1 µM [2, 12]: 63% | inhibition at 0.1 µM [3, 10]: 88%

SMILES: CN1CCc2c(c3cc(Cl)ccc3n2CCC2CCCCC2)C1 [compound 212]
inhibition at 0.1 µM [2, 12]: 64% | inhibition at 0.1 µM [3, 10]: 66%

SMILES: CN1CCc2c(c3ccc(Cl)cc3n2CCc2ccccc2)C1 [compound 215]
inhibition at 0.1 µM [2, 12]: 102% | inhibition at 0.1 µM [3, 10]: 97%
